ChEMBL document CHEMBL1140630, “Resisting degradation by human elastase: commonality of design features shared by 'canonical' plant and bacterial macrocyclic protease inhibitor scaffolds” (Bioorg Med Chem, 2007)
One block for each molecule: values may come before it. Bridge positions count the residues as written; N and C are the ends. Peptide text beside a SMILES is read from it.

Key:
[1] = Inhibition of trypsin
Pancreatic elastase = Pancreatic elastase (Sus scrofa, UniProt P08419+P00772); test: Inhibition of porcine pancreatic elastase; type: protein assay
[2] = Inhibition of subtilisin BPN
[3] = Inhibition of chymotrypsin

Structure (SMILES): CC(C)C[C@@H](NC(=O)[C@H](O)COS(=O)(=O)O)C(=O)N[C@@H]1C(=O)N[C@@H](CCCNC(=N)N)C(=O)N[C@H]2CC[C@@H](O)N(C2=O)[C@@H](CC(C)C)C(=O)N(C)[C@@H](Cc2ccc(O)cc2)C(=O)N[C@@H](C(C)C)C(=O)O[C@@H]1C
- Ki [1]: 9 nM

- IC50 (Pancreatic elastase): 260 nM
Structure (SMILES): C/C=C1\NC(=O)[C@H]2NC(=O)[C@@H](NC(=O)C(C)C)CCCNC(=O)Nc3cc(O)c(O)cc3C[C@@H](C(=O)N[C@@H](C(C)C)C(=O)O[C@H]2C)N(C)C(=O)[C@H](Cc2ccccc2)N2C(=O)[C@H](CC[C@H]2O)NC1=O

- Ki [2]: 1.5 nM
- Ki [3]: 300 nM
Structure (SMILES): CSCC[C@@H]1NC(=O)[C@@H](NC(=O)[C@H](C)NC(=O)[C@@H](N)Cc2ccccc2)[C@@H](C)OC(=O)C[C@@H]2NC(=O)[C@H](COC(=O)C[C@@H](C(=O)N[C@@H](CCC(=O)O)C(=O)O)NC(=O)[C@H](CO)NC2=O)NC(=O)[C@@H]2CCCN2C(=O)[C@H](Cc2ccc(O)cc2)NC(=O)[C@H](CCCNC(=N)N)NC1=O [MARINOSTATIN] (H-FATMRYPSDSDE-OH; ester 3-9, 8-11)

- IC50 (Pancreatic elastase): 160 nM
Structure (SMILES): CCCC(=O)N[C@@H](C)C(=O)N[C@H](C(=O)N[C@@H]1C(=O)N[C@@H](CC(C)C)C(=O)N[C@@H]2CC[C@H](O)N(C2=O)[C@@H](C(C)O)C(=O)N[C@@H](Cc2ccc(O)c(Cl)c2)C(=O)N[C@@H](C(C)C)C(=O)O[C@H]1C)[C@@H](C)O (stereo not given in full) [SCYPTOLIN A]
